Test results reported in PMC8445441, “Elucidating the mechanism by which synthetic helper peptides sensitize Pseudomonas aeruginosa to multiple antibiotics” (PLoS Pathogens, 2021).
No end group written: not given here.

System: P. aeruginosa PAO1
Assay: microbe, parasite or virus in culture
Protocol: The MIC tests were performed in triplicate using broth microdilution in accordance with Clinical and Laboratory Standards Institute (CLSI) recommendations (http://iacld.ir/DL/public/CLSI-2018-M100-S28.pdf). Briefly, drugs were two-fold diluted in MHB and mixed with an equal volume of bacterial suspensions containing approximately 1 × 10^6 CFU/mL in 96-well microliter plate. After 18 h incubation at 37 °C, the MIC values were defined as the lowest concentrations of antibiotics with no visible growth of bacteria. […] Otherwise, 1/4 MIC of the peptide was used in the combination. […] If needed, membrane compounds PG, PE, PC, CL or LPS, or membrane stabilizers MgCl2 or CaCl2, or efflux pumps inhibitor PAβN were added to the broth medium to clarify the effect of other substances on the synergy between peptide and antibiotics. All the tests were performed in triplicate.
The fractional inhibitory concentration (FIC) indices were calculated using the previously described formula FICI = FICa + FICb = MICac/MICa + MICbc/MICb. The FICI was interpreted according to EUCAST [65] as follows: synergistic, FICI≤0.5; additive, 0.5<FICI≤1; indifferent, 1<FICI<2; antagonistic, FICI ≥2. For the FICI calculations, twice the highest concentration tested was used in the cases where the MIC was not reached.

[1] = PAO1, peptide + azithromycin, twice the highest concentration used where MIC not reached
[2] = peptide alone, PAO1, broth microdilution in MHB, 18 h, 37 °C, triplicate

Substance	FICI [1]	MICb: the MIC of the peptide [2] [µM]	MICb: the MIC of the peptide (PAO1, 18 h) [µM]	also measured
GNNRPVYIPQPRPPHPRL [Api1b]	1.125	> 32		
KHVGKALKGLK [ADP-1b]			> 32	
KIAKVALKALK [PEP10]	1.125	> 32		
KRIVQRIKKWLR-NH2 [KR-12-a2]			32	MIC of the peptide (PAO1, 18 h): ≥ 32 µM
LKGLKGLLKGL [ADP-1c]			> 32	
LKGLKGLLKGLGEC [ADP-1a]			> 32	
NGVQPKYK [PEP9]			> 32	
RIVQRIKKWLR-NH2 [Peptide L-11]			32	MIC of the peptide (PAO1, 18 h): ≥ 32 µM
RIVQWIKKWLR-NH2 [Peptide L-11-R5W]	1.250	4		
RIWVIWRR-NH2 [Bac8c]	1.250	4		
RLLFRKIRRLKR [EC5]	0.188	> 32		FICI (PAO1, peptide + Azithromycin, higher peptide concentration line): <0.125; FICI (PAO1, peptide + Azithromycin, lower peptide concentration line): <0.281; FICI (PAO1, peptide + Clarithromycin, higher peptide concentration line): <0.313; FICI (PAO1, peptide + Clarithromycin, lower peptide concentration line): <0.281; FICI (PAO1, peptide + Erythromycin, higher peptide concentration line): <0.313; FICI (PAO1, peptide + Erythromycin, lower peptide concentration line): <0.281; FICI (PAO1, peptide + Spiramycin, higher peptide concentration line): 1.063; FICI (PAO1, peptide + Spiramycin, lower peptide concentration line): 1.031; FICI (PAO1, peptide + Telithromycin, higher peptide concentration line): <0.313; FICI (PAO1, peptide + Telithromycin, lower peptide concentration line): <0.531; MICb: the MIC of the peptide (S1 Table, peptide alone, PAO1): > 128 µM; MIC of the peptide (peptide alone, PAO1): ≥ 32 µM
RRLFRRILRWL-NH2 [RW-BP100]	1.250	8		
VDKGSYLPRPTPPRPIYNRN-NH2 [Pyrrhocoricin]	1.125	> 32		
VDKPPYLPRPRPPRRIYNR-NH2 [Oncocin]	1.125	> 32		
